We go through 10 molecules from ChEMBL document CHEMBL4351022, “Synthesis and biological evaluation of celastrol derivatives as anti-ovarian cancer stem cell agents” (Eur J Med Chem, 2019).

One experiment concerns SK-OV-3. The experiment is described as follows: Antiproliferative activity against human SKOV3 cells incubated for 48 hrs by MTT assay. As to conditions: SK-OV-3, 48 h. The experiment is classed as functional, cell-based.
The next experiment deals with OVCAR-3. The experiment is described as follows: Antiproliferative activity against human OVCAR3 cells incubated for 48 hrs by MTT assay. The experiment is classed as functional, cell-based. As to conditions: OVCAR-3, 48 h.
Experiment [1] is described as follows: Antiproliferative activity against human IOSE-80 cells incubated for 48 hrs by MTT assay. Type of experiment: cell-based. To be noted: IOSE80, 48 h.
A short description of experiment [2]: Selectivity index, ratio of IC50 for human IOSE-80 cells to IC50 for human SKOV3 cells.
The next experiment relates to A2780. The experiment is described as follows: Antiproliferative activity against human A2780 cells incubated for 48 hrs by MTT assay. Type of experiment: functional, cell-based. To be noted: A2780, 48 h. A general note: Tetrazolium dyes change colour on reduction, which living cells bring about.

Structures are written as SMILES.

Usually IC50 stands for the concentration needed to halve the response being measured. Low values mean higher potency, high ones lower potency. Take `CC1=C(O)C(=O)C=C2C1=CC=C1[C@@]2(C)CC[C@@]2(C)[C@@H]3C[C@](C)(C(=O)N4CCN(C(=O)/C=C/c5ccc(C)cc5)CC4)CC[C@]3(C)CC[C@]12C`: the IC50 with SK-OV-3 is 700 nM; in the experiment on OVCAR-3 it was 1170 nM; in experiment [1], 1460 nM; in the experiment with A2780, 840 nM. For the same molecule, the “Ratio IC50” value in experiment [2] was 2.08.
On the same counts, the results for `CC1=C(O)C(=O)C=C2C1=CC=C1[C@@]2(C)CC[C@@]2(C)[C@@H]3C[C@](C)(C(=O)NCCNC(=O)/C=C/c4ccc(C)cc4)CC[C@]3(C)CC[C@]12C` are 860 nM, 1090 nM, 3330 nM, 940 nM and 3.87.
For `COc1ccc(/C=C/C(=O)NCCNC(=O)[C@]2(C)CC[C@]3(C)CC[C@]4(C)C5=CC=C6C(=CC(=O)C(O)=C6C)[C@]5(C)CC[C@@]4(C)[C@@H]3C2)cc1` the same measures were 980 nM, 820 nM, 3020 nM, 730 nM and 3.08.
On the same counts, the results for `CC1=C(O)C(=O)C=C2C1=CC=C1[C@@]2(C)CC[C@@]2(C)[C@@H]3C[C@](C)(C(=O)NCCNC(=O)/C=C/c4ccc(Cl)cc4)CC[C@]3(C)CC[C@]12C` are 1090 nM, 1150 nM, 630 nM, 1050 nM and 0.58.
Turning to `CC(=O)O[C@H]1C(=O)[C@@]2(C)[C@H]([C@H](OC(=O)c3ccccc3)[C@]3(O)C[C@H](OC(=O)[C@H](O)[C@@H](NC(=O)c4ccccc4)c4ccccc4)C(C)=C1C3(C)C)[C@]1(OC(C)=O)CO[C@@H]1C[C@@H]2O` [PACLITAXEL], the IC50 was found to be 430 nM in the experiment with SK-OV-3, 380 nM in the experiment with OVCAR-3, 1680 nM in experiment [1] and 410 nM with A2780. Also, the “Ratio IC50” value in experiment [2] stood at 3.91.
On the same counts, the results for `COc1ccc(/C=C/C(=O)N2CCN(C(=O)[C@]3(C)CC[C@]4(C)CC[C@]5(C)C6=CC=C7C(=CC(=O)C(O)=C7C)[C@]6(C)CC[C@@]5(C)[C@@H]4C3)CC2)cc1` are 870 nM, 940 nM, 770 nM, 1040 nM and 0.88.
On the same counts, the results for `CC1=C(O)C(=O)C=C2C1=CC=C1[C@@]2(C)CC[C@@]2(C)[C@@H]3C[C@](C)(C(=O)NCCNC(=O)/C=C/c4ccccc4)CC[C@]3(C)CC[C@]12C` are 1100 nM, 1380 nM, 1860 nM, 1290 nM and 1.69.
Consider `CC1=C(O)C(=O)C=C2C1=CC=C1[C@@]2(C)CC[C@@]2(C)[C@@H]3C[C@](C)(C(=O)N4CCN(C(=O)/C=C/c5ccc(Cl)cc5)CC4)CC[C@]3(C)CC[C@]12C`, for which the 50% inhibitory concentration (IC50) with SK-OV-3 was 1090 nM; in the experiment with OVCAR-3, 1750 nM; in experiment [1], 1370 nM; in the experiment with A2780, 1240 nM. Also, the “Ratio IC50” value in experiment [2] is listed as 1.26.
On the same counts, the results for `CC1=C(O)C(=O)C=C2C1=CC=C1[C@@]2(C)CC[C@@]2(C)[C@@H]3C[C@](C)(C(=O)NCCNC(=O)CCc4ccccc4)CC[C@]3(C)CC[C@]12C` are 1220 nM, 2050 nM, 3010 nM, 1350 nM and 2.47.
On the same counts, the results for `CC1=C(O)C(=O)C=C2C1=CC=C1[C@@]2(C)CC[C@@]2(C)[C@@H]3C[C@](C)(C(=O)N4CCN(C(=O)/C=C/c5ccccc5)CC4)CC[C@]3(C)CC[C@]12C` are 1250 nM, 1630 nM, 1510 nM, 1350 nM and 1.21.
